Values after ≈ are worked out from the molar mass of the structure shown. Active and inactive are the calls of the source. The rule behind the calls is not given here. Residues, ends and D or L forms follow the SMILES beside them. *: point of attachment. Myristoyl = CCCCCCCCCCCCCC(=O)*; Lauroyl = CCCCCCCCCCCC(=O)*
What was measured:
[1] = tested on: Cell membrane; assay: Induction of membrane disruption in Staphylococcus aureus ATCC 25923 assessed as formation of dent at 2 to 4 times MIC measured after 2 to 4 hrs by SEM analysis; type: subcellular; settings: time 2-4 hrs
[2] = tested on: Cell membrane; assay: Induction of membrane disruption in Staphylococcus aureus ATCC 25923 assessed as increase in cell content leakage at 4 times MIC measured after 2 to 4 hrs by SEM analysis; type: subcellular; settings: time 2-4 hrs
[3] = tested on: Staphylococcus aureus; assay: Antibiofilm activity against ciprofloxacin-resistant Staphylococcus aureus ATCC 25923 at 0.5 to 8 uM after 24 hrs by crystal violet staining based assay; type: functional, organism-based; settings: dose 0.5-8 µM
[4] = tested on: Staphylococcus aureus; assay: Potentiation of ciprofloxacin-induced antimicrobial activity against methicillin-resistant Staphylococcus aureus 75 assessed as change in ciprofloxacin MIC at 2 uM after 18 hrs by broth microdilution method relative to ciprofloxacin MIC; type: functional
[5] = tested on: Staphylococcus aureus; assay: Potentiation of ciprofloxacin-induced antimicrobial activity against ciprofloxacin-resistant Staphylococcus aureus ATCC 25923 assessed as change in ciprofloxacin MIC at 4 uM after 18 hrs by broth microdilution method relative to ciprofloxacin MIC; type: functional
[6] = tested on: Staphylococcus epidermidis; assay: Antimicrobial activity against ciprofloxacin-resistant Staphylococcus epidermidis ATCC 12228 after 18 hrs by broth microdilution method; type: functional, organism-based
[7] = tested on: Cell membrane; assay: Induction of membrane disruption in Staphylococcus aureus ATCC 25923 assessed as irregular atrophy at 2 to 4 times MIC measured after 2 to 4 hrs by SEM analysis; type: subcellular; settings: time 2-4 hrs
[8] = tested on: Staphylococcus aureus; assay: Antibiofilm activity against Staphylococcus aureus ATCC 25923 assessed as biofilm thickness at 4 uM after 24 hrs using LIVE/LEAD (SYTO-9/PI) staining by confocal laser scanning microscopy based 3D image analysis (reference value: 55 micrometer); type: functional
[9] = tested on: Staphylococcus epidermidis; assay: Antimicrobial activity against ciprofloxacin-resistant Staphylococcus epidermidis ATCC 12228 at 0.5 times MIC after 15 passages by broth microdilution method; type: functional, organism-based
[10] = tested on: Staphylococcus aureus; assay: Antibiofilm activity against ciprofloxacin-resistant Staphylococcus aureus ATCC 25923 at 0.5 to 8 uM after 24 hrs in presence of ciprofloxacin by checkerboard assay; type: functional, organism-based; settings: dose 0.5-8 µM
[11] = tested on: Staphylococcus aureus; assay: Antimicrobial activity against ciprofloxacin-resistant Staphylococcus aureus ATCC 25923 after 18 hrs by broth microdilution method; type: functional, organism-based
[12] = tested on: Staphylococcus aureus; assay: Potentiation of ciprofloxacin-induced antimicrobial activity against ciprofloxacin-resistant Staphylococcus aureus ATCC 25923 assessed as change in ciprofloxacin MIC at 2 uM after 18 hrs by broth microdilution method relative to ciprofloxacin MIC; type: functional
[13] = tested on: Cell membrane; assay: Induction of membrane disruption in Staphylococcus aureus ATCC 25923 assessed as membrane blebbing at 2 to 4 times MIC measured after 2 to 4 hrs by SEM analysis; type: subcellular; settings: time 2-4 hrs
[14] = tested on: Staphylococcus aureus; assay: Antibiofilm activity against Staphylococcus aureus ATCC 25923 preformed biofilm assessed as preformed biofilm thickness at 32 uM after 24 hrs using LIVE/LEAD (SYTO-9/PI) staining by confocal laser scanning microscopy based 3D image analysis (reference value: 56 micrometer); type: functional
[15] = tested on: Staphylococcus aureus; assay: Antimicrobial activity against Staphylococcus aureus ATCC 25923 after 18 hrs in presence of 10% serum by broth microdilution method; type: functional
[16] = tested on: Staphylococcus epidermidis; assay: Antimicrobial activity against Staphylococcus epidermidis ATCC 12228 at 0.5 times MIC after 15 passages by broth microdilution method; type: functional, organism-based
[17] = tested on: Cell membrane; assay: Induction of membrane disruption in Staphylococcus aureus ATCC 25923 measured after 2 hrs by propidium iodide staining based confocal laser scanning microscopic analysis; type: subcellular
[18] = Binding affinity to LTA (unknown origin) assessed as bacterial killing at 2 times MIC preincubated for 1 hr followed by Staphylococcus aureus ATCC 25923 addition and measured after 2 hrs by colony counting method; settings: time 3.0 hrs
[19] = tested on: Staphylococcus epidermidis; assay: Potentiation of ciprofloxacin-induced antimicrobial activity against ciprofloxacin-resistant Staphylococcus epidermidis ATCC 12228 assessed as change in ciprofloxacin MIC at 2 uM after 18 hrs by broth microdilution method relative to ciprofloxacin MIC; type: functional
[20] = tested on: Staphylococcus aureus; assay: Antibiofilm activity against Staphylococcus aureus ATCC 25923 preformed biofilm assessed as reduction in preformed biofilm thickness after 24 hrs using LIVE/LEAD (SYTO-9/PI) staining by confocal laser scanning microscopy based 3D image analysis; type: functional, organism-based; settings: dose 32-64 µM
[21] = tested on: Staphylococcus aureus; assay: Antibiofilm activity against Staphylococcus aureus ATCC 25923 at 4 to 8 uM after 24 hrs by LIVE/DEAD (SYTO-9/PI) staining based confocal laser scanning microscopic analysis; type: functional, organism-based; settings: dose 4-8 µM
[22] = tested on: Staphylococcus aureus; assay: Antimicrobial activity against methicillin-resistant Staphylococcus aureus 75 at 0.5 to 8 uM measured after 18 hrs in presence of ciprofloxacin by checkerboard assay; type: functional, organism-based; settings: dose 0.5-8 µM
[23] = tested on: Staphylococcus epidermidis; assay: Potentiation of ciprofloxacin-induced antimicrobial activity against Staphylococcus epidermidis ATCC 12228 at 0.5 times MIC after 15 passages by broth microdilution method; type: functional, organism-based
[24] = tested on: Staphylococcus aureus; assay: Antibiofilm activity against Staphylococcus aureus ATCC 25923 preformed biofilm assessed as preformed biofilm thickness at 64 uM after 24 hrs using LIVE/LEAD (SYTO-9/PI) staining by confocal laser scanning microscopy based 3D image analysis (reference value: 56 micrometer); type: functional
[25] = tested on: Cell membrane; assay: Induction of membrane disruption in Staphylococcus aureus ATCC 25923 assessed as cell lysis at 4 times MIC measured after 2 to 4 hrs by SEM analysis; type: subcellular; settings: time 2-4 hrs
[26] = tested on: Erythrocyte; assay: Hemolytic activity against mouse erythrocytes measured after 1 hr; type: ADME, cell-based
[27] = tested on: Staphylococcus aureus; assay: Induction of nucleic acid leakage in Staphylococcus aureus ATCC 25923 at 4 times MIC; type: functional
[28] = tested on: Staphylococcus aureus; assay: Antimicrobial activity against methicillin-resistant Staphylococcus aureus 113 after 18 hrs by broth microdilution method; type: functional
[29] = tested on: Staphylococcus aureus; assay: Antimicrobial activity against ciprofloxacin-resistant Staphylococcus aureus ATCC 25923 at 0.5 to 8 uM measured after 18 hrs in presence of EtBr by checkerboard assay; type: functional, organism-based; settings: dose 0.5-8 µM
[30] = tested on: Staphylococcus epidermidis; assay: Antimicrobial activity against Staphylococcus epidermidis ATCC 12228 after 18 hrs in presence of polymyxin B by checkerboard assay; type: functional, organism-based
[31] = tested on: Staphylococcus aureus; assay: Induction of reactive oxygen species generation in Staphylococcus aureus ATCC 25923 by […] dye based fluorescence assay; type: functional, organism-based
[32] = tested on: Staphylococcus aureus; assay: Potentiation of ciprofloxacin-induced antimicrobial activity against methicillin-resistant Staphylococcus aureus 75 assessed as change in ciprofloxacin MIC at 1 uM after 18 hrs by broth microdilution method relative to ciprofloxacin MIC; type: functional
[33] = tested on: Staphylococcus aureus; assay: Potentiation of ciprofloxacin-induced antimicrobial activity against methicillin-resistant Staphylococcus aureus 75 at 0.5 uM after 18 hrs by broth microdilution method; type: functional, organism-based
[34] = tested on: Staphylococcus aureus; assay: Antimicrobial activity against Staphylococcus aureus ATCC 25923 after 18 hrs by broth microdilution method; type: functional
[35] = tested on: Staphylococcus aureus; assay: Antimicrobial activity against methicillin-resistant Staphylococcus aureus 75 measured after 18 hrs in presence of polymyxin B by checkerboard assay; type: functional, organism-based
[36] = tested on: Staphylococcus aureus; assay: Antimicrobial activity against Staphylococcus aureus ATCC 25923 after 18 hrs in presence of polymyxin B by checkerboard assay; type: functional, organism-based
[37] = tested on: Staphylococcus epidermidis; assay: Potentiation of ciprofloxacin-induced antimicrobial activity against ciprofloxacin-resistant Staphylococcus epidermidis ATCC 12228 assessed as ciprofloxacin MIC at 0.5 times MIC after 15 passages by broth microdilution method; type: functional

SMILES | Activity [1] | Activity [2] | Activity [3] | fold change (FC) [4] | fold change (FC) [5] | Activity [6] | Activity [7] | Activity [8] [um] | Activity [9] | Activity [10] | Activity [11] | fold change (FC) [12] | Activity [13] | Activity [14] [um] | MIC [15] [µM] | Activity [16] | Activity [17] | Activity [18] | fold change (FC) [19] | Activity [20] | other results
CCCCCCCCCCCC(=O)N[C@@H](CCCNC(=N)N)C(=O)N[C@@H](CCCNC(=N)N)C(=O)N[C@@H](Cc1c[nH]c2ccccc12)C(N)=O (Lauroyl-Arg-Arg-Trp-NH2) | Active | Active | Active | 2 | 2 | Active | Active | 24 | Active | Active | Active | 2 | Active | 30 | 64 | Active | Dose-dependent effect | Active | 2 | Dose-dependent effect | Activity [21]: Active; Activity [22]: Active; Activity [23]: Active; Activity [24]: 40 um; Activity [25]: Active; MHC10 [26]: 128 µM; Activity [27]: inactive; MIC [28]: 2 µM (≈ 1.4 µg/mL); Activity [29]: Active; Activity [30]: Active; Activity [31]: Active; fold change (FC) [32]: 2; Activity [33]: inactive; MIC [34]: 4 µM (≈ 2.79 µg/mL); Activity [35]: Active; Activity [36]: Active; MIC [37]: 8 µM
CCCCCCCCCCCCCC(=O)N[C@@H](CCCNC(=N)N)C(=O)N[C@@H](Cc1c[nH]c2ccccc12)C(=O)N[C@@H](Cc1c[nH]c2ccccc12)C(N)=O (Myristoyl-Arg-Trp-Trp-NH2) | Active | Active | Active | 2 | 2 | Active | Active | 30 | Active | Active | Active | 2 | Active | 40 | 16 | Active | Dose-dependent effect | Active | 2 | Dose-dependent effect | Activity [21]: Active; Activity [22]: Active; Activity [23]: Active; Activity [24]: 24 um; Activity [25]: Active; MHC10 [26]: > 256 µM; Activity [27]: inactive; MIC [28]: 4 µM (≈ 3.02 µg/mL); Activity [29]: Active; Activity [30]: Active; Activity [31]: Active; fold change (FC) [32]: 2; Activity [33]: inactive; MIC [34]: 8 µM (≈ 6.05 µg/mL); Activity [35]: Active; Activity [36]: Active; MIC [37]: 8 µM
